Results taken from patent US20250382251A1, “ALDEHYDE COMPOSITION” (MITSUBISHI GAS CHEMICAL COMPANY, INC., priority 2022, published 2025).

How the values were obtained:
[1] = Evaluation of threshold of smell; settings: diluted with dipropylene glycol, 10 to 0.001 ppm; lower limit concentration at which the smell can be identified
Bhas42 cells = assay: Carcinogenicity prediction test (transformation test, OECD 231GD); type: cell-based; settings: in vitro transformation test using Bhas42 cells, negative or positive
Experimental: Using the aldehyde compositions obtained in Examples and Lilial (3-(p-tert-butylphenyl)-2-methylpropanal), a transformation test (an in vitro carcinogenicity prediction test using Bhas42 cells) was performed based on OECD 231GD to determine whether the carcinogenicity was negative or positive. When the result of this test is negative, it is predicted that there is no possibility of causing carcinogenicity, and safety is high.

SMILES: CC(C=O)Cc1ccc(C(C)(C)C)cc1 (centres unmarked) [Comparative Example 2, 3-(p-tert-butylphenyl)-2-methylpropanal]
- Threshold of smell (ppm) [1]: 1 ppm
- Carcinogenicity prediction test (Bhas42 cells): Positive
